Assays:
weeds [1] = assay: Post-emergence test; format: in vivo; settings: cf. Tables B-1 to B-4
Protocol: (§1) Post-emergence Test Solvent: 5 parts by weight of acetone Emulsifier: 1 part by weight of alkylaryl polyglycol ether To produce a suitable preparation of active compound, 1 part by weight of active compound is mixed with the stated amount of solvent, the stated amount of emulsifier is added and the concentrate is diluted with water to the desired concentration. Test plants which have a height of 5-15 cm are sprayed with the preparation of the active compound in such a way as to apply the particular amounts of active compound desired per unit area. The concentration of the spray liquor is chosen so that the particular amounts of active compound desired are applied in 1000 l of water/ha. After three weeks, the degree of damage to the plants is rated in % damage in comparison to the development of the untreated control. The figures denote: [table]

weeds [2] = assay: Pre-emergence test; format: in vivo; settings: cf. Tables A-1 to A-5
Protocol: (§2) Pre-emergence Test Solvent: 5 parts by weight of acetone Emulsifier: 1 part by weight of alkylaryl polyglycol ether To produce a suitable preparation of active compound, 1 part by weight of active compound is mixed with the stated amount of solvent, the stated amount of emulsifier is added and the concentrate is diluted with water to the desired concentration. Seeds of the test plants are sown in normal soil. After about 24 hours, the soil is sprayed with the preparation of the active compound in such a way as to apply the particular amounts of active compound desired per unit area The concentration of the spray liquor is chosen so that the particular amounts of active compound desired are applied in 1000 l of water/ha. After three weeks, the degree of damage to the plants is rated in % damage in comparison to the development of the untreated control. The figures denote: [table]

Alopecurus [3] = assay: Pre-emergence test/greenhouse; format: in vivo; settings: after three weeks
Protocol: as §2

Solanum [4] = assay: Pre-emergence test/greenhouse; format: in vivo; settings: after three weeks
Protocol: as §2

Matricaria = assay: Pre-emergence test/greenhouse; format: in vivo; settings: after three weeks
Protocol: as §2

Sorghum [5] = assay: Pre-emergence test/greenhouse; format: in vivo; settings: after three weeks
Protocol: as §2

Maize = assay: Pre-emergence test/greenhouse; format: in vivo; settings: after three weeks
Protocol: as §2

Amaranthus [6] = assay: Pre-emergence test/greenhouse; format: in vivo; settings: after three weeks
Protocol: as §2

Lolium [7] = assay: Pre-emergence test/greenhouse; format: in vivo; settings: after three weeks
Protocol: as §2

Chenopodium = assay: Pre-emergence test/greenhouse; format: in vivo; settings: after three weeks
Protocol: as §2

Alopecurus [8] = assay: Post-emergence test/greenhouse; format: in vivo; settings: 60 g ai./ha, after three weeks
Protocol: as §1

Ipomoea = assay: Post-emergence test/greenhouse; format: in vivo; settings: 60 g ai./ha; for % damage, Ipomoea: after three weeks
Protocol: as §1

Solanum [9] = assay: Post-emergence test/greenhouse; format: in vivo; settings: 60 g ai./ha; for % damage, Solanum: after three weeks; for Solanum, % damage: rated after three weeks vs untreated control
Protocol: as §1

Sorghum [10] = assay: Post-emergence test/greenhouse; format: in vivo; settings: 60 g ai./ha; for % damage, Sorghum: after three weeks; for Sorghum, % damage: rated after three weeks vs untreated control
Protocol: as §1

Stellaria = assay: Post-emergence test/greenhouse; format: in vivo; settings: 60 g ai./ha; for % damage, Stellaria: after three weeks
Protocol: as §1

Lolium [11] = assay: Post-emergence test/greenhouse; format: in vivo; settings: 60 g ai./ha, after three weeks
Protocol: as §1

Soya beans = assay: Pre-emergence test/greenhouse; format: in vivo; settings: 125 g ai./ha, after three weeks
Protocol: as §2

Xanthium = assay: Post-emergence test/greenhouse; format: in vivo; settings: 60 g ai./ha; for Xanthium, % damage: rated after three weeks vs untreated control
Protocol: as §1

Wheat = assay: Post-emergence test/greenhouse; format: in vivo; settings: 60 g ai./ha; for % damage, Wheat: after three weeks
Protocol: as §1

Amaranthus [12] = assay: Post-emergence test/greenhouse; format: in vivo; settings: Table B-4, post-emergence, 60 g ai./ha, rated after three weeks vs untreated control
Protocol: as §1

[13] = log P n-octanol/water by the HPLC method; format: physicochemical; settings: at pH 2, eluent acetonitrile containing 1% of H3PO4
[14] = rated after three weeks vs untreated control

SMILES	activity against weeds (weeds [1])	activity against weeds (weeds [2])	% damage, Alopecurus (Alopecurus [8]) [%]	% damage, Ipomoea (Ipomoea) [%]	% damage, Solanum (Solanum [9]; post-emergence) [%]	% damage, Sorghum (Sorghum [10]; post-emergence) [%]	% damage, Stellaria (Stellaria) [%]	% damage, Lolium (Lolium [11]) [%]	% damage, Alopecurus (Alopecurus [3]; 125 g ai./ha) [%]	% damage, Solanum (Solanum [4]; 125 g ai./ha) [%]	% damage, Matricaria (Matricaria; 125 g ai./ha) [%]	% damage, Sorghum (Sorghum [5]; 125 g ai./ha) [%]	% damage, Maize (Maize; 125 g ai./ha) [%]	% damage, Amaranthus (Amaranthus [6]; 125 g ai./ha) [%]	% damage, Lolium (Lolium [7]; 125 g ai./ha) [%]	% damage, Chenopodium (Chenopodium; 125 g ai./ha) [%]	log P [13]	other results
COc1cccc(SC)c1S(=O)(=O)NC(=O)n1nc(OC)n(C)c1=O [Example 21]	very strong activity	very strong activity	100	90	100	100	100	95										% damage, Alopecurus (Alopecurus [3]; 60 g ai./ha): 100%; % damage, Solanum (Solanum [4]; 60 g ai./ha): 100%; % damage, Matricaria (Matricaria; 60 g ai./ha): 90%; % damage, Sorghum (Sorghum [5]; 60 g ai./ha): 100%; % damage, Maize (Maize; 60 g ai./ha): 20%; % damage, Amaranthus (Amaranthus [6]; 60 g ai./ha): 100%; % damage, Lolium (Lolium [7]; 60 g ai./ha): 100%; % damage, Chenopodium (Chenopodium; 60 g ai./ha): 100%
CCSc1cccc(OC(F)(F)F)c1S(=O)(=O)NC(=O)n1nc(SC)n(C)c1=O [Example 41]		very strong activity							100	100	100	90	10	100	80	100		% damage, Soya beans (Soya beans): 20%
CCc1nn(C(=O)NS(=O)(=O)c2c(C)cccc2SC)c(=O)n1C [Example 49]	very strong activity																	Xanthium, % damage (Xanthium; Table B-4, post-emergence): 95%; Xanthium, % damage (Xanthium; post-emergence): 95%; Wheat, % damage (Wheat; [14]): 20%; Ipomoea, % damage (Ipomoea; [14]): 90%; Solanum, % damage (Solanum [9]; Table B-4, post-emergence): 90%; Solanum, % damage (Solanum [9]; post-emergence): 90%; Sorghum, % damage (Sorghum [10]; Table B-4, post-emergence): 90%; Sorghum, % damage (Sorghum [10]; post-emergence): 90%; Stellaria, % damage (Stellaria; [14]): 70%; Amaranthus, % damage (Amaranthus [12]): 95%
CCOc1nn(C(=O)NS(=O)(=O)c2c(OC(F)(F)F)cccc2SCC)c(=O)n1C [Example 6]	very strong activity	very strong activity	60	90	95	70	95	50	100	100	100	80	0	100	100	100		% damage, Xanthium (Xanthium; post-emergence, after three weeks): 95%; % damage, Wheat (Wheat): 5%
CCOc1nn(C(=O)NS(=O)(=O)c2c(OC)cccc2SCC)c(=O)n1C [Example 7]	very strong activity	very strong activity	95	95	95	95	100	95	100	100	70	90	0	100	100	100		% damage, Wheat (Wheat): 10%
CSc1nn(C(=O)NS(=O)(=O)c2c(C)cccc2SCC(F)F)c(=O)n1C [Example 101]																	(log P = 2.73)	
COc1nn(C(=O)NS(=O)(=O)c2c(SCC(F)F)cccc2C(F)(F)F)c(=O)n1C1CC1 [Example 100]																	(log P = 2.96)	
COc1nn(C(=O)NS(=O)(=O)c2c(SCC(F)F)cccc2C(F)(F)F)c(=O)n1C [Example 99]																	(log P = 2.59)	
